Test results published in ChEMBL document CHEMBL1275440, “In vitro activity of telavancin against resistant gram-positive bacteria” (2008).
Values after ≈ are worked out from the molar mass of the structure shown. Active and inactive are the calls of the source. No cut-off for these calls is given here.

How the values were obtained:
Enterococcus faecium [1] = test: Antibacterial activity against vancomycin resistant Enterococcus faecium VanB clinical isolate assessed as susceptibility level by broth microdilution method; type: functional
Enterococcus faecium [2] = test: Antibacterial activity against vancomycin resistant Enterococcus faecium VanA clinical isolate assessed as susceptibility level by broth microdilution method; type: functional
Enterococcus faecalis [3] = test: Antibacterial activity against vancomycin resistant Enterococcus faecalis VanA clinical isolate assessed as susceptibility level by broth microdilution method; type: functional
Enterococcus faecium [4] = test: Antibacterial activity against vancomycin resistant Enterococcus faecium VanA clinical isolate by broth microdilution method; type: functional
Enterococcus faecalis [5] = test: Antibacterial activity against vancomycin resistant Enterococcus faecalis VanA clinical isolate by broth microdilution method; type: functional
Enterococcus faecalis [6] = test: Antibacterial activity against vancomycin resistant Enterococcus faecalis VanB clinical isolate assessed as susceptibility level by broth microdilution method; type: functional
Enterococcus faecalis [7] = test system: Enterococcus faecalis
Enterococcus faecalis [8] = test: Antibacterial activity against vancomycin resistant Enterococcus faecalis VanB clinical isolate by broth microdilution method; type: functional
Enterococcus faecium [9] = test: Antibacterial activity against vancomycin resistant Enterococcus faecium VanB clinical isolate by broth microdilution method; type: functional
[10] = Antibacterial activity against methicillin resistant coagulase-negative Staphylococcus hominis subsp. novobiosepticus clinical isolate assessed as susceptibility level by broth microdilution method; type: functional
Streptococcus mitis [11] = test: Antibacterial activity against Streptococcus mitis clinical isolate assessed as susceptibility level by broth microdilution method; type: functional
[12] = test system: Staphylococcus saprophyticus; test: Antibacterial activity against methicillin resistant coagulase-negative Staphylococcus saprophyticus clinical isolate by broth microdilution method; type: functional
Streptococcus viridans [13] = test: Antibacterial activity against Streptococcus viridans clinical isolate assessed as susceptibility level by broth microdilution method; type: functional
[14] = test system: Streptococcus constellatus; test: Antibacterial activity against Streptococcus constellatus clinical isolate by broth microdilution method; type: functional
[15] = test system: Staphylococcus saprophyticus; test: Antibacterial activity against methicillin resistant coagulase-negative Staphylococcus saprophyticus clinical isolate assessed as susceptibility level by broth microdilution method; type: functional
Streptococcus pyogenes [16] = test: Antibacterial activity against Streptococcus pyogenes group A clinical isolate by broth microdilution method; type: functional
Staphylococcus capitis [17] = test: Antibacterial activity against methicillin resistant coagulase-negative Staphylococcus capitis clinical isolate by broth microdilution method; type: functional
[18] = test system: Staphylococcus haemolyticus; test: Antibacterial activity against methicillin resistant coagulase-negative Staphylococcus haemolyticus clinical isolate by broth microdilution method; type: functional
Streptococcus viridans [19] = test: Antibacterial activity against Streptococcus viridans clinical isolate by broth microdilution method; type: functional
Staphylococcus capitis [20] = test: Antibacterial activity against methicillin resistant coagulase-negative Staphylococcus capitis clinical isolate assessed as susceptibility level by broth microdilution method; type: functional
Streptococcus mitis [21] = test: Antibacterial activity against Streptococcus mitis clinical isolate by broth microdilution method; type: functional
Staphylococcus aureus [22] = test: Antibacterial activity against methicillin resistant Staphylococcus aureus clinical isolate assessed as susceptibility level by broth microdilution method; type: functional
[23] = test system: Streptococcus constellatus; test: Antibacterial activity against Streptococcus constellatus clinical isolate assessed as susceptibility level by broth microdilution method; type: functional
[24] = test system: Staphylococcus auricularis; test: Antibacterial activity against methicillin resistant coagulase-negative Staphylococcus auricularis clinical isolate by broth microdilution method; type: functional
[25] = Antibacterial activity against methicillin resistant coagulase-negative Staphylococcus hominis subsp. novobiosepticus clinical isolate by broth microdilution method; type: functional
Staphylococcus aureus [26] = test: Antibacterial activity against methicillin resistant Staphylococcus aureus clinical isolate by broth microdilution method; type: functional; settings: for MIC50 / MIC90: Staphylococcus aureus
Streptococcus pneumoniae [27] = test: Antibacterial activity against multidrug-resistant Streptococcus pneumoniae clinical isolate assessed as susceptibility level by broth microdilution method; type: functional
Streptococcus agalactiae [28] = test: Antibacterial activity against Streptococcus agalactiae group B clinical isolate assessed as susceptibility level by broth microdilution method; type: functional
Streptococcus oralis [29] = test: Antibacterial activity against Streptococcus oralis clinical isolate by broth microdilution method; type: functional
[30] = test system: Staphylococcus haemolyticus; test: Antibacterial activity against methicillin resistant coagulase-negative Staphylococcus haemolyticus clinical isolate assessed as susceptibility level by broth microdilution method; type: functional
Streptococcus pneumoniae [31] = test: Antibacterial activity against penicillin resistant Streptococcus pneumoniae clinical isolate assessed as susceptibility level by broth microdilution method; type: functional
[32] = test system: Staphylococcus epidermidis; test: Antibacterial activity against methicillin resistant Staphylococcus epidermidis clinical isolate assessed as susceptibility level by broth microdilution method; type: functional
[33] = test system: Streptococcus intermedius; test: Antibacterial activity against Streptococcus intermedius clinical isolate by broth microdilution method; type: functional
Streptococcus pyogenes [34] = test: Antibacterial activity against Streptococcus pyogenes group A clinical isolate assessed as susceptibility level by broth microdilution method; type: functional
Streptococcus pneumoniae [35] = test: Antibacterial activity against penicillin intermediate Streptococcus pneumoniae clinical isolate assessed as susceptibility level by broth microdilution method; type: functional
Streptococcus pneumoniae [36] = test: Antibacterial activity against multidrug-resistant Streptococcus pneumoniae clinical isolate by broth microdilution method; type: functional
Streptococcus oralis [37] = test: Antibacterial activity against Streptococcus oralis clinical isolate assessed as susceptibility level by broth microdilution method; type: functional
Streptococcus pneumoniae [38] = test: Antibacterial activity against penicillin intermediate Streptococcus pneumoniae clinical isolate by broth microdilution method; type: functional
[39] = test system: Streptococcus intermedius; test: Antibacterial activity against Streptococcus intermedius clinical isolate assessed as susceptibility level by broth microdilution method; type: functional
Streptococcus agalactiae [40] = test: Antibacterial activity against Streptococcus agalactiae group B clinical isolate by broth microdilution method; type: functional
[41] = test system: Staphylococcus auricularis; test: Antibacterial activity against methicillin resistant coagulase-negative Staphylococcus auricularis clinical isolate assessed as susceptibility level by broth microdilution method; type: functional
Streptococcus pneumoniae [42] = test: Antibacterial activity against penicillin resistant Streptococcus pneumoniae clinical isolate by broth microdilution method; type: functional
[43] = test system: Staphylococcus epidermidis; test: Antibacterial activity against methicillin resistant Staphylococcus epidermidis clinical isolate by broth microdilution method; type: functional

Compound: CC1(C)S[C@@H]2[C@H](NC(=O)[C@H](N)c3ccccc3)C(=O)N2[C@H]1C(=O)O [AMPICILLIN]
- Activity (Enterococcus faecium [1]): 22%
- Activity (Enterococcus faecium [2]): 0%
- Percent of isolates susceptible (Enterococcus faecalis [3]): 81%
- MIC50 (Enterococcus faecium [4]): 64 µg/mL (≈ 183 µM)
- MIC90 (Enterococcus faecium [4]): 128 µg/mL (≈ 366 µM)
- MIC50 (Enterococcus faecalis [5]): 1 µg/mL (≈ 2.86 µM)
- MIC90 (Enterococcus faecalis [5]): 64 µg/mL (≈ 183 µM)
- Activity (Enterococcus faecalis [6]): 60%
- MIC50 (Enterococcus faecalis [7]): inactive
- MIC90 (Enterococcus faecalis [7]): inactive
- MIC (Enterococcus faecalis [8]): ≤ 0.25 µg/mL
- MIC50 (Enterococcus faecium [9]): 64 µg/mL (≈ 183 µM)
- MIC90 (Enterococcus faecium [9]): 64 µg/mL (≈ 183 µM)

Compound: CC[C@H]1OC(=O)[C@H](C)[C@@H](O[C@H]2C[C@@](C)(OC)[C@@H](O)[C@H](C)O2)[C@H](C)[C@@H](O[C@@H]2O[C@H](C)C[C@H](N(C)C)[C@H]2O)[C@](C)(O)C[C@@H](C)C(=O)[C@H](C)[C@@H](O)[C@]1(C)O [ERYTHROMYCIN]
- Activity [10]: 18%
- Activity (Streptococcus mitis [11]): 63%
- MIC50 [12]: > 16 µg/mL
- MIC90 [12]: > 16 µg/mL
- Activity (Streptococcus viridans [13]): 63%
- MIC [14]: ≤ 15 ng/mL
- MIC50 [14]: inactive
- MIC90 [14]: inactive
- Activity [15]: 18%
- MIC50 (Streptococcus pyogenes [16]): 0.03 µg/mL (≈ 0.0409 µM)
- MIC90 (Streptococcus pyogenes [16]): > 1 µg/mL
- MIC50 (Staphylococcus capitis [17]): > 16 µg/mL
- MIC90 (Staphylococcus capitis [17]): > 16 µg/mL
- MIC50 [18]: > 16 µg/mL
- MIC90 [18]: > 16 µg/mL
- MIC (Streptococcus viridans [19]): ≤ 15 ng/mL
- MIC50 (Streptococcus viridans [19]): inactive
- MIC90 (Streptococcus viridans [19]): inactive
- Activity (Staphylococcus capitis [20]): 18%
- MIC (Streptococcus mitis [21]): ≤ 15 ng/mL
- MIC50 (Streptococcus mitis [21]): inactive
- MIC90 (Streptococcus mitis [21]): inactive
- Activity (Staphylococcus aureus [22]): 2%
- Activity [23]: 63%
- MIC50 [24]: > 16 µg/mL
- MIC90 [24]: > 16 µg/mL
- MIC50 [25]: > 16 µg/mL
- MIC90 [25]: > 16 µg/mL
- Activity (Staphylococcus aureus [26]): 2%
- MIC50 (Staphylococcus aureus [26]): > 16 µg/mL
- MIC90 (Staphylococcus aureus [26]): > 16 µg/mL
- Activity (Streptococcus pneumoniae [27]): 13%
- Activity (Streptococcus agalactiae [28]): 62%
- MIC (Streptococcus oralis [29]): ≤ 15 ng/mL
- MIC50 (Streptococcus oralis [29]): inactive
- MIC90 (Streptococcus oralis [29]): inactive
- Activity [30]: 18%
- Activity (Streptococcus pneumoniae [31]): 20%
- Activity [32]: 15%
- MIC [33]: ≤ 15 ng/mL
- MIC50 [33]: inactive
- MIC90 [33]: inactive
- Activity (Streptococcus pyogenes [34]): 89%
- Activity (Streptococcus pneumoniae [35]): 42%
- MIC (Streptococcus pneumoniae [36]): 0.03 µg/mL (≈ 0.0409 µM)
- Activity (Streptococcus oralis [37]): 63%
- MIC50 (Streptococcus pneumoniae [38]): > 1 µg/mL
- MIC90 (Streptococcus pneumoniae [38]): > 1 µg/mL
- Activity [39]: 63%
- MIC50 (Streptococcus agalactiae [40]): 0.06 µg/mL (≈ 0.0818 µM)
- MIC90 (Streptococcus agalactiae [40]): > 1 µg/mL
- Activity [41]: 18%
- MIC (Streptococcus pneumoniae [42]): 0.03 µg/mL (≈ 0.0409 µM)
- MIC50 [43]: > 16 µg/mL
- MIC90 [43]: > 16 µg/mL

Compound: CC[C@H]1OC(=O)[C@H](C)C(=O)[C@H](C)[C@@H](O[C@@H]2O[C@H](C)C[C@H](N(C)C)[C@H]2O)[C@](C)(OC)C[C@@H](C)C(=O)[C@H](C)[C@H]2N(CCCCn3cnc(-c4cccnc4)c3)C(=O)O[C@]12C [TELITHROMYCIN]
- Activity [10]: 29%
- MIC50 [12]: > 8 µg/mL
- MIC90 [12]: > 8 µg/mL
- MIC [14]: 4 ng/mL (≈ 0.00493 µM)
- MIC50 [14]: inactive
- MIC90 [14]: inactive
- Activity [15]: 29%
- MIC50 (Streptococcus pyogenes [16]): 0.015 µg/mL (≈ 0.0185 µM)
- MIC90 (Streptococcus pyogenes [16]): 0.015 µg/mL (≈ 0.0185 µM)
- MIC50 (Staphylococcus capitis [17]): > 8 µg/mL
- MIC90 (Staphylococcus capitis [17]): > 8 µg/mL
- MIC50 [18]: > 8 µg/mL
- MIC90 [18]: > 8 µg/mL
- MIC (Streptococcus viridans [19]): 4 ng/mL (≈ 0.00493 µM)
- MIC50 (Streptococcus viridans [19]): inactive
- MIC90 (Streptococcus viridans [19]): inactive
- Activity (Staphylococcus capitis [20]): 29%
- MIC (Streptococcus mitis [21]): 4 ng/mL (≈ 0.00493 µM)
- MIC50 (Streptococcus mitis [21]): inactive
- MIC90 (Streptococcus mitis [21]): inactive
- Activity (Staphylococcus aureus [22]): 83%
- MIC50 [24]: > 8 µg/mL
- MIC90 [24]: > 8 µg/mL
- MIC50 [25]: > 8 µg/mL
- MIC90 [25]: > 8 µg/mL
- Activity (Staphylococcus aureus [26]): 83%
- MIC50 (Staphylococcus aureus [26]): 0.25 µg/mL (≈ 0.308 µM)
- MIC90 (Staphylococcus aureus [26]): 16 µg/mL (≈ 19.7 µM)
- MIC (Streptococcus oralis [29]): 4 ng/mL (≈ 0.00493 µM)
- MIC50 (Streptococcus oralis [29]): inactive
- MIC90 (Streptococcus oralis [29]): inactive
- Activity [30]: 29%
- Activity [32]: 43%
- MIC [33]: 4 ng/mL (≈ 0.00493 µM)
- MIC50 [33]: inactive
- MIC90 [33]: inactive
- Activity (Streptococcus pneumoniae [35]): 100%
- MIC50 (Streptococcus pneumoniae [36]): 0.06 µg/mL (≈ 0.0739 µM)
- MIC90 (Streptococcus pneumoniae [36]): 0.5 µg/mL (≈ 0.616 µM)
- MIC50 (Streptococcus pneumoniae [38]): 0.03 µg/mL (≈ 0.0369 µM)
- MIC90 (Streptococcus pneumoniae [38]): 0.12 µg/mL (≈ 0.148 µM)
- MIC50 (Streptococcus agalactiae [40]): 0.015 µg/mL (≈ 0.0185 µM)
- MIC90 (Streptococcus agalactiae [40]): 0.25 µg/mL (≈ 0.308 µM)
- Activity [41]: 29%
- MIC50 (Streptococcus pneumoniae [42]): 0.06 µg/mL (≈ 0.0739 µM)
- MIC90 (Streptococcus pneumoniae [42]): 0.5 µg/mL (≈ 0.616 µM)
- MIC50 [43]: 0.5 µg/mL (≈ 0.616 µM)
- MIC90 [43]: > 8 µg/mL
